Activity calls are given as the source filed them. On the calls: in the data inactive means no Kd found up to 30 µM.
Legend:
[1] = molecular target: Dual specificity protein kinase CLK3 (Homo sapiens, UniProt P49761); format: subcellular, K-562, COLO 205, SK-N-BE(2) and MV-4-11, Cell lysate; details: read-out: Kd apparent
[2] = molecular target: T1, Tyrosine-protein kinase Mer (Homo sapiens, UniProt Q12866)
T1 sequence (Q12866 whole entry): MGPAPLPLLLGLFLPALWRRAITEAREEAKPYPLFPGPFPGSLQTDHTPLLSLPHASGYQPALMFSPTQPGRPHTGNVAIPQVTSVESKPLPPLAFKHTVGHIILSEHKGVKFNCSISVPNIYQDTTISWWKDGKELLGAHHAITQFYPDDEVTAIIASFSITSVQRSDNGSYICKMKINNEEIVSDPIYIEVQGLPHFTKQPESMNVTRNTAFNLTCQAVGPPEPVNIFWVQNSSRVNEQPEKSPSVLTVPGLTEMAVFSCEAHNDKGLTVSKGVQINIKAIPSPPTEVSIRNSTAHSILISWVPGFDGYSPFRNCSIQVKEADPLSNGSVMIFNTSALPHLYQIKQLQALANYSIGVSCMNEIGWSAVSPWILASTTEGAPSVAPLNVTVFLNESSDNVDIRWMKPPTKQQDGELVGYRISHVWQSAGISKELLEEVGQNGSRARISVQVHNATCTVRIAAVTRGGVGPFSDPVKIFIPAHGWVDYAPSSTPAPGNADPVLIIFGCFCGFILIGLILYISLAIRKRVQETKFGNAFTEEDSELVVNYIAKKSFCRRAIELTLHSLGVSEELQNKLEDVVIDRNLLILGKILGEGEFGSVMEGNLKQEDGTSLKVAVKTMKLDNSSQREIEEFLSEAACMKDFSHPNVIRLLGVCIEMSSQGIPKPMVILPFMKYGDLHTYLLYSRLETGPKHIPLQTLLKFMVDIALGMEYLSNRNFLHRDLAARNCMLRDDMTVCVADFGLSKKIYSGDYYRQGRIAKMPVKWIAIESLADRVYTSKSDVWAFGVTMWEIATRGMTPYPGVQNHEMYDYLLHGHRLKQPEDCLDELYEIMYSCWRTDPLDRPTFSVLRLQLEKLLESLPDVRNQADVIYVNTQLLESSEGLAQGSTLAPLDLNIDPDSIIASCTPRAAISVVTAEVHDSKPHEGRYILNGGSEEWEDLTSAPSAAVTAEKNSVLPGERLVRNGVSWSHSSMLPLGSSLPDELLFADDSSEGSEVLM

[3] = molecular target: Serine/threonine-protein kinase PAK 6 (Homo sapiens, UniProt Q9NQU5)
[4] = molecular target: Dual specificity testis-specific protein kinase 2 (Homo sapiens, UniProt Q96S53)
[5] = molecular target: T2, UMP-CMP kinase (Homo sapiens, UniProt P30085)
T2 sequence (P30085 whole entry): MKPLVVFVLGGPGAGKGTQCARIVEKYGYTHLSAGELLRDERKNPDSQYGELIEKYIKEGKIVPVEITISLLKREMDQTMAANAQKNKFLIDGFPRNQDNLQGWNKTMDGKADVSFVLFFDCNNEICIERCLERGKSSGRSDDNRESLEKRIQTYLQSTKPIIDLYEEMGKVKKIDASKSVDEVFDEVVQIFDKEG

[6] = molecular target: T3, Dual specificity mitogen-activated protein kinase kinase 4 (Homo sapiens, UniProt P45985)
T3 sequence (P45985 whole entry): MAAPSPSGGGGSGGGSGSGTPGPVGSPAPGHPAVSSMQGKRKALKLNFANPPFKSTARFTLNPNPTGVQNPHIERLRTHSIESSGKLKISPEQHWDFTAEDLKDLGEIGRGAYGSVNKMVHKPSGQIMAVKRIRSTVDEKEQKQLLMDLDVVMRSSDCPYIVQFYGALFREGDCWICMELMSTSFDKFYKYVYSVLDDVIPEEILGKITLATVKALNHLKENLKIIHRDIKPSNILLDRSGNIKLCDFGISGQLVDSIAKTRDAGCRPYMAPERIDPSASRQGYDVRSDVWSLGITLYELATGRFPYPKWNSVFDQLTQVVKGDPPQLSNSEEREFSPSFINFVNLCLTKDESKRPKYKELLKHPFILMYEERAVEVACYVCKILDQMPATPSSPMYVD

[7] = molecular target: Uncharacterized aarF domain-containing protein kinase 5 (Homo sapiens, UniProt Q3MIX3)
[8] = molecular target: T4, Isoleucine--tRNA ligase, mitochondrial (Homo sapiens, UniProt Q9NSE4)
T4 sequence (Q9NSE4 whole entry): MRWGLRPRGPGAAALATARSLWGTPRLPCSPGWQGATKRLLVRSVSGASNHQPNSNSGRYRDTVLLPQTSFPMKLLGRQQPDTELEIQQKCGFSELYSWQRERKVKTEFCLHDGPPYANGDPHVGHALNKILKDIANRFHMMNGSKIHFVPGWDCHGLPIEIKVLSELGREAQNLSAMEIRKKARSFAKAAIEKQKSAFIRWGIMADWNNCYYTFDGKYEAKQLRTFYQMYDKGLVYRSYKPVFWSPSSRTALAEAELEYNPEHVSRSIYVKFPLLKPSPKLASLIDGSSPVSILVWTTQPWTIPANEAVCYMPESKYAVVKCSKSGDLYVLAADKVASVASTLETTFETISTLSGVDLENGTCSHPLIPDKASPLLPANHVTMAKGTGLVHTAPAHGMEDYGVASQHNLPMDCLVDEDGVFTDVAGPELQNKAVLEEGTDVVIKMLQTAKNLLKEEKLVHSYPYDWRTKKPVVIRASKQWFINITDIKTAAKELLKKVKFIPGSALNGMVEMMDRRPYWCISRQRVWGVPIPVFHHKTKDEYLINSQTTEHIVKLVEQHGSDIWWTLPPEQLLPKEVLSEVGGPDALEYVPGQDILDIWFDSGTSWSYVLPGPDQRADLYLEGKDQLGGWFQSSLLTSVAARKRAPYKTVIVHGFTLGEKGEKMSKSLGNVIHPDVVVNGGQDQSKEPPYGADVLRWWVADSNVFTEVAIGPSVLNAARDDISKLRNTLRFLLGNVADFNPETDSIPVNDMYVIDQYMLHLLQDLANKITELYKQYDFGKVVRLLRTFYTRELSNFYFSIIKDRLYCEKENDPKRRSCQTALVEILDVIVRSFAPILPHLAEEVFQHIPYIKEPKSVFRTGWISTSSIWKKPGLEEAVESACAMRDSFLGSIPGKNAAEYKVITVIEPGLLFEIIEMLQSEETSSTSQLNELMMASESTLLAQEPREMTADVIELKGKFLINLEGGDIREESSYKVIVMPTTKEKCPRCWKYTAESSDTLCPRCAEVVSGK

[9] = molecular target: Cell division cycle 7-related protein kinase (Homo sapiens, UniProt O00311)
[10] = molecular target: Serine/threonine-protein kinase 38-like (Homo sapiens, UniProt Q9Y2H1)
Chain of Serine/threonine-protein kinase 38-like (Q9Y2H1 whole entry): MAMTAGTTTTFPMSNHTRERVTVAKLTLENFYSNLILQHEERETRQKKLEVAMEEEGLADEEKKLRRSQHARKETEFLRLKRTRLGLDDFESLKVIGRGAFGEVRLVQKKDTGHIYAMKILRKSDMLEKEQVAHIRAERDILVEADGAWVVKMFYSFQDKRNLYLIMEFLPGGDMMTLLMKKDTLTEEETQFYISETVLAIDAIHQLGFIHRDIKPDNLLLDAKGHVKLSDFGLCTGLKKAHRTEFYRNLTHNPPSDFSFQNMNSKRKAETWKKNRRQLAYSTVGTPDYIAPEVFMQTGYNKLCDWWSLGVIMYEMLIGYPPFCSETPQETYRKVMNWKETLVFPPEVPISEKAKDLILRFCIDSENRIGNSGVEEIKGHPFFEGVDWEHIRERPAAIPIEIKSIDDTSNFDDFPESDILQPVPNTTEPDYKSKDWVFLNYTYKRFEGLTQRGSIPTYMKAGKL

Chain of Dual specificity protein kinase CLK3 (P49761 whole entry): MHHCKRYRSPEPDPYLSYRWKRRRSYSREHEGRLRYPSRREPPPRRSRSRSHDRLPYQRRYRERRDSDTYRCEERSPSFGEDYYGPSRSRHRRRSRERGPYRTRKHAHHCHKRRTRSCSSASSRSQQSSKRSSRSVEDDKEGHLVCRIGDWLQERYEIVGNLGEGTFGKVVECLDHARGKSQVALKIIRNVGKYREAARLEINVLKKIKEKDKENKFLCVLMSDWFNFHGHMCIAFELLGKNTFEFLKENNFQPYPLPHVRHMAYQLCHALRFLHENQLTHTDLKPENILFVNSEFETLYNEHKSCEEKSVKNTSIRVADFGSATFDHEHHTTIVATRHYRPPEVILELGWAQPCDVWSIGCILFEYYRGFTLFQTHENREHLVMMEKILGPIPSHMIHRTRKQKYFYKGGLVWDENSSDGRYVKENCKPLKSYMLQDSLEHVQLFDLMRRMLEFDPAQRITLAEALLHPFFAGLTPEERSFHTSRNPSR
Chain of Serine/threonine-protein kinase PAK 6 (Q9NQU5 whole entry): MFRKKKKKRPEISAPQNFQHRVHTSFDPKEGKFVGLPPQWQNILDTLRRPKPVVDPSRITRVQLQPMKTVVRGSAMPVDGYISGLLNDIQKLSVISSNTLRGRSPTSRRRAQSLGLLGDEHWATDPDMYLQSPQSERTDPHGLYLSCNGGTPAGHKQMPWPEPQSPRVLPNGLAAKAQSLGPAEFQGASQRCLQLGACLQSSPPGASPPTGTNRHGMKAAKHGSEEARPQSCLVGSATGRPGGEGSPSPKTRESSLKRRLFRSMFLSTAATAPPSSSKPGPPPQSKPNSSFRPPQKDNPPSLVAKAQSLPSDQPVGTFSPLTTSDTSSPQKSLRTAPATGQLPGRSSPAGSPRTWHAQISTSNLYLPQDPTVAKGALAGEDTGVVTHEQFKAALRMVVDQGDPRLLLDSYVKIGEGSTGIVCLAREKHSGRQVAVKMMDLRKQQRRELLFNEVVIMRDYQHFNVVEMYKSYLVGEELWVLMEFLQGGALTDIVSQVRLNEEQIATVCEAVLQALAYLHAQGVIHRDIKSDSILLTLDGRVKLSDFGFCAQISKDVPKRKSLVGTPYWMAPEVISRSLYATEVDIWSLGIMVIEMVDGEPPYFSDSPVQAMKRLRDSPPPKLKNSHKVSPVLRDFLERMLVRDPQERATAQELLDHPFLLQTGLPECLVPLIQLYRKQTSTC
Chain of Dual specificity testis-specific protein kinase 2 (Q96S53 whole entry): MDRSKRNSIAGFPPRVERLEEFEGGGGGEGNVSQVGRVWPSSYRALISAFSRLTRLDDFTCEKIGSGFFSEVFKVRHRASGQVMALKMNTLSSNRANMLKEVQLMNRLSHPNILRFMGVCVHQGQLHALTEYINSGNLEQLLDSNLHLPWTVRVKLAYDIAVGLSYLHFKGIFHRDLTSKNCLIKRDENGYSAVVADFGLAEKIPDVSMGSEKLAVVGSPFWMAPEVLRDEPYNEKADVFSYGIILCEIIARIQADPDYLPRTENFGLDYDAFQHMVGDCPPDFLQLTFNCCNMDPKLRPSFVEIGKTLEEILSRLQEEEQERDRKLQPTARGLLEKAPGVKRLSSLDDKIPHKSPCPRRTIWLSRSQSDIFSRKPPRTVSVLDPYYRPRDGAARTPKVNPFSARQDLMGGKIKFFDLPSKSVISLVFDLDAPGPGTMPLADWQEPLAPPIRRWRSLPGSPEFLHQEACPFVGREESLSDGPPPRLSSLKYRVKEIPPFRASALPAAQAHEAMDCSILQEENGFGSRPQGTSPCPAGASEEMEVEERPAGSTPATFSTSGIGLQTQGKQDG
Chain of Cell division cycle 7-related protein kinase (O00311 whole entry): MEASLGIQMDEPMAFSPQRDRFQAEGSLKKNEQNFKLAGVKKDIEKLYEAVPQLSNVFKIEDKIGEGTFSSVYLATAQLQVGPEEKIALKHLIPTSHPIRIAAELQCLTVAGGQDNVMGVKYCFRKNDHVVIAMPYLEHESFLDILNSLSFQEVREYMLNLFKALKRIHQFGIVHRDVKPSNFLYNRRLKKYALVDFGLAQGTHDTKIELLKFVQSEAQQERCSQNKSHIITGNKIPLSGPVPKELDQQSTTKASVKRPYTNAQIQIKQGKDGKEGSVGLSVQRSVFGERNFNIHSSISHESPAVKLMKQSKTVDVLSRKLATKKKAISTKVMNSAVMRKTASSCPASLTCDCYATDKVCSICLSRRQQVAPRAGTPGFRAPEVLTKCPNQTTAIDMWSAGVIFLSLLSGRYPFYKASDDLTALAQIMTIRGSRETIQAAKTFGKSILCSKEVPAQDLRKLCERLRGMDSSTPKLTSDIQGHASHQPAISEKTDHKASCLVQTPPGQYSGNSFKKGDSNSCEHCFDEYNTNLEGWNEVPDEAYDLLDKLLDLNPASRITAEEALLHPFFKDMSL
Chain of Uncharacterized aarF domain-containing protein kinase 5 (Q3MIX3 whole entry, the tested form may be a part): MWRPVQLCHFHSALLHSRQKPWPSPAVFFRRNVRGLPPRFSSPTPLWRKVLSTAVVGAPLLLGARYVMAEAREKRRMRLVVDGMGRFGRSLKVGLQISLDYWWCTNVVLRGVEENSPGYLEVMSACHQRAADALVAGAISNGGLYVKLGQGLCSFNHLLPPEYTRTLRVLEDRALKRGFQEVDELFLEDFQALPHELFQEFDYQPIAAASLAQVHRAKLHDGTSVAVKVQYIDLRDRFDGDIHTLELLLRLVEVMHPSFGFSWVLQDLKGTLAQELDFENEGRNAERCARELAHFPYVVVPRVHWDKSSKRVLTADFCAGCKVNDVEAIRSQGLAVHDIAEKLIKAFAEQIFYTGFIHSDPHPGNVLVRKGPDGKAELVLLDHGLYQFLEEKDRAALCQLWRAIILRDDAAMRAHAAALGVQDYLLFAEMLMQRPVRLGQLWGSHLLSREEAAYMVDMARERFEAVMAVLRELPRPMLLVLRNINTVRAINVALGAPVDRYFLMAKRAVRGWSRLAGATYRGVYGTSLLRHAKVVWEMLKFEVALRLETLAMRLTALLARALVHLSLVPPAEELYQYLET

SMILES | Kd [1] | Kd [2] | Kd [3] | Kd [4] | Kd [5] | Kd [6] | Kd [7] | Kd [8] | Kd [9] | Kd [10]
C=CC(=O)N1CCC[C@H](n2c(=O)n(-c3ccc(Oc4ccccc4)cc3)c3c(N)ncnc32)C1 | > 30 µM (inactive) | > 30 µM (inactive) | > 30 µM (inactive) | > 30 µM (inactive) | > 30 µM (inactive) | > 30 µM (inactive) |  |  |  | 
Cc1csc(-c2nnc(Nc3ccc(Oc4ncccc4-c4ccnc(N)n4)cc3)c3ccccc23)c1 [AMG-900] | 1.48 µM (active) | > 30 µM (inactive) |  | > 30 µM (inactive) | > 30 µM (inactive) | > 30 µM (inactive) | > 30 µM (inactive) | > 30 µM (inactive) |  | 
COc1cc2ncnc(Oc3cccc(NC(=O)Nc4cc(C(C)(C)C(F)(F)F)on4)c3)c2cc1OC [CEP-32496] | > 30 µM (inactive) | > 30 µM (inactive) |  |  | > 30 µM (inactive) | > 30 µM (inactive) |  | > 30 µM (inactive) | > 30 µM (inactive) | 
CC(C)(C)c1nc(-c2cccc(NS(=O)(=O)c3c(F)cccc3F)c2F)c(-c2ccnc(N)n2)s1 [DABRAFENIB] | > 30 µM (inactive) | > 30 µM (inactive) | > 30 µM (inactive) | > 30 µM (inactive) | > 30 µM (inactive) | > 30 µM (inactive) | > 30 µM (inactive) | > 30 µM (inactive) | > 30 µM (inactive) | 
O=C(Nc1nc2cccc(-c3ccc(CN4CCS(=O)(=O)CC4)cc3)n2n1)C1CC1 [FILGOTINIB] |  |  | > 30 µM (inactive) |  | > 30 µM (inactive) | > 30 µM (inactive) | > 30 µM (inactive) | > 30 µM (inactive) |  | > 30 µM (inactive)
NC1(c2ccc(-c3nc4ccn5c(=O)[nH]nc5c4cc3-c3ccccc3)cc2)CCC1 [MK-2206] |  | > 30 µM (inactive) | > 30 µM (inactive) |  | > 30 µM (inactive) |  |  | > 30 µM (inactive) | > 30 µM (inactive) | 
COc1ncc(-c2ccc3nccc(-c4ccnnc4)c3c2)cc1NS(=O)(=O)c1ccc(F)cc1F [OMIPALISIB] |  |  |  |  | > 30 µM (inactive) |  | > 30 µM (inactive) | > 30 µM (inactive) | > 30 µM (inactive) | > 30 µM (inactive)
NC(=O)c1c(OCc2c(F)cc(Br)cc2F)nsc1NC(=O)NCCCCN1CCCC1 [OSI-632] | > 30 µM (inactive) |  | > 30 µM (inactive) |  |  | > 30 µM (inactive) | > 30 µM (inactive) |  |  | > 30 µM (inactive)
CCCCCCCCCCCCCCCCCCOP(=O)([O-])OC1CC[N+](C)(C)CC1 [PERIFOSINE] |  |  |  |  | > 30 µM (inactive) |  |  | > 30 µM (inactive) |  | > 30 µM (inactive)
Cc1cnc(NC(=O)Nc2cc(Br)c(C)cc2OC[C@@H]2CNCCO2)cn1 [RABUSERTIB] | > 30 µM (inactive) | > 30 µM (inactive) | > 30 µM (inactive) | > 30 µM (inactive) |  | > 30 µM (inactive) |  | > 30 µM (inactive) | > 30 µM (inactive) | 
CNC(=O)c1cc(Oc2ccc(NC(=O)Nc3cc(C(C)(C)C)nn3-c3ccc4ncccc4c3)c(F)c2)ccn1 [REBASTINIB] | > 30 µM (inactive) | > 30 µM (inactive) |  | 0.002 µM |  |  | > 30 µM (inactive) |  |  | 
N#CC1(c2ccc(NC(=O)c3cccnc3NCc3ccncc3)cc2)CCCC1 [RIVOCERANIB] | > 30 µM (inactive) |  | > 30 µM (inactive) | > 30 µM (inactive) | > 30 µM (inactive) |  | > 30 µM (inactive) | > 30 µM (inactive) | > 30 µM (inactive) | > 30 µM (inactive)
O=c1[nH]ccc2cc(OC3CCNCC3)ccc12 [SAR-407899 FREE BASE] |  | > 30 µM (inactive) | > 30 µM (inactive) | > 30 µM (inactive) | > 30 µM (inactive) |  | > 30 µM (inactive) | > 30 µM (inactive) |  | 
CO[C@H]1C[C@@H]2CC[C@@H](C)[C@@](O)(O2)C(=O)C(=O)N2CCCC[C@H]2C(=O)O[C@H]([C@H](C)C[C@@H]2CC[C@@H](O)[C@H](OC)C2)CC(=O)[C@H](C)/C=C(\C)[C@@H](O)[C@@H](OC)C(=O)[C@H](C)C[C@H](C)/C=C/C=C/C=C/1C [SIROLIMUS] | > 30 µM (inactive) | > 30 µM (inactive) |  | > 30 µM (inactive) | > 30 µM (inactive) |  | > 30 µM (inactive) | > 30 µM (inactive) | > 30 µM (inactive) | 
COc1cc2c(Nc3ccc(Cl)c(Cl)c3F)ncnc2cc1OC[C@@H]1C[C@@H]2CN(C)C[C@@H]2C1 [TESEVATINIB] | > 30 µM (inactive) | > 30 µM (inactive) | > 30 µM (inactive) | > 30 µM (inactive) |  | > 30 µM (inactive) | > 30 µM (inactive) | > 30 µM (inactive) |  | 
O=C(Cc1ccc(-c2ccc(OCCN3CCOCC3)cc2)cn1)NCc1ccccc1 [TIRBANIBULIN] | > 30 µM (inactive) |  |  | > 30 µM (inactive) | > 30 µM (inactive) | > 30 µM (inactive) | > 30 µM (inactive) | > 30 µM (inactive) |  | > 30 µM (inactive)
O=C1NC(=O)[C@@H](c2cn3c4c(cccc24)CCC3)[C@@H]1c1c[nH]c2ccccc12 [TIVANTINIB] | > 30 µM (inactive) |  | > 30 µM (inactive) | > 30 µM (inactive) | > 30 µM (inactive) |  | > 30 µM (inactive) |  |  | > 30 µM (inactive)
Cc1cc(Nc2ncnc3ccc(NC4=NC(C)(C)CO4)cc23)ccc1Oc1ccn2ncnc2c1 [TUCATINIB] |  | > 30 µM (inactive) |  | > 30 µM (inactive) | > 30 µM (inactive) |  |  | > 30 µM (inactive) | > 30 µM (inactive) | 
C[C@@H](N)c1ccc(C(=O)Nc2ccnc3[nH]ccc23)cc1 [Y-39983] |  |  | > 30 µM (inactive) |  |  | > 30 µM (inactive) |  | > 30 µM (inactive) | > 30 µM (inactive) | > 30 µM (inactive)
